What is called EC50 is the concentration giving half of the maximal effect. Low readings indicate a more potent agent, high ones a less potent agent. What is called Kd is the concentration at which binding is half-saturated. A lower Kd goes with higher affinity.

Results on four compounds are retold here after US11453703B2, “Heterotandem bicyclic peptide complexes” (BicycleTX Limited, priority 2018, dated 2022).

Series [1] addresses T1, CD137 (Homo sapiens, UniProt Q07011). The experiment in a line: CD137 reporter assay, co-culture with Nectin-4 tumour cells.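 On all read-outs here: jurkat reporter cells co-cultured with tumour cells and test article for 6 h, luminescence signal relative to Jurkat plus tumour cells lacking test article.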 In kind it is cell-based. More on the design: host or cells: Jurkat reporter cells. The settings on record: for Fold Induction over Background: tumour target Nectin4, co-culture with H1376, 6 h.
The test system of series [2] is human PBMC co-cultured with 4T1-D02 (Nectin4+). The experiment in a line: Human PBMC-4T1 co-culture (cytokine release) assay. Format: cell-based. The settings on record: anti-CD3 stimulated PBMC, 48 hours; for EC50: IFN-γ secretion. As for the experimental part: Mouse mammary gland tumor cell line 4T1-1 (4T1-Parental) and murine Nectin-4 overexpressing 4T1 (4T1-D02) were cultured in RPMI1640 supplemented with 10% heat-inactivated Fetal Bovine Serum, 100 I.U/ml Penicillin and 100 I.U/Streptomycin, 20 mM HEPES, 1× Non-Essential Amino Acids, and 2 mM L-Glutamine (RPMI working medium). Frozen PBMCs from healthy human donors were thawed and washed one time in room temperature PBS, and then resuspended in RPMI working medium. For tumor cell and PBMC co-culture, 10000 PBMCs and 2000 tumor cells (5:1) were mixed and plated in each well of a 384 well plate. For stimulating human PBMCs, 125 ng/ml of soluble anti-CD3 mAb (clone OKT3) was added to the culture on day 0. Test, control compounds or vehicle controls were added to respective wells and brought the final volume per well to 100u1. Plates were incubated in a 37° C. cell culture incubator with 5% CO2 for up to three days. Supernatants were collected 48 hours after stimulation, and human IL-2 and IFFγ were detected using HTRF assays. Raw data were analyzed using Excel or Prism software to generate standard curves to interpolate protein concentrations. Data represents one study with three different donor PBMC tested in experimental duplicates.

The target of series [3] is T1, CD137. The experiment in a line: CD137 Biacore (SPR) binding assay. More on the design: purchased R&D systems. The conditions noted are these: biotinylated human CD137, 25° C. As for the experimental part:
Biacore experiments were performed to determine ka (M^−1s^−1), kd (s^−1), KD (nM) values of heterotandem peptides binding to human CD137 protein. […] The protein was desalted to remove uncoupled biotin using spin columns into PBS.
For analysis of peptide binding, a Biacore T200 or a Biacore 3000 instrument was used with a XanTec CMD500D chip. Streptavidin was immobilized on the chip using standard amine-coupling chemistry at 25° C. with HBS-N (10 mM HEPES, 0.15 M NaCl, pH 7.4) as the running buffer. Briefly, the carboxymethyl dextran surface was activated with a 7 min injection of a 1:1 ratio of 0.4 M 1-ethyl-3-(3-dimethylaminopropyl) carbodiimide hydrochloride (EDC)/0.1 M N-hydroxy succinimide (NHS) at a flow rate of 10 μl/min. For capture of streptavidin, the protein was diluted to 0.2 mg/ml in 10 mM sodium acetate (pH 4.5) and captured by injecting 120 μl of onto the activated chip surface. Residual activated groups were blocked with a 7 min injection of 1 M ethanolamine (pH 8.5) and biotinylated CD137 captured to a level of 270-1500 RU. Buffer was changed to PBS/0.05% Tween 20 and a dilution series of the peptides was prepared in this buffer with a final DMSO concentration of 0.5%. The top peptide concentration was 500 nM with 6 further 2-fold or 3-fold dilutions. The SPR analysis was run at 25° C. at a flow rate of 90 μl/min with 60 seconds association and 900 seconds dissociation. After each cycle a regeneration step (10 μl of 10 mM glycine pH 2) was employed. Data were corrected for DMSO excluded volume effects as needed. All data were double-referenced for blank injections and reference surface using standard processing procedures and data processing and kinetic fitting were performed using Scrubber software, version 2.0c (BioLogic Software). Data were fitted using simple 1:1 binding model allowing for mass transport effects where appropriate.
On the technique in general: In SPR one partner is held on a chip, and binding of the other changes the refractive index at the surface.

The target in series [4] is T1, CD137. The experiment in a line: CD137 reporter assay, co-culture with EphA2 tumour cells. In kind it is cell-based. More on the design: host or cells: Jurkat reporter cells. The conditions noted are these: tumour target EphA2, co-culture with PC3, at 100 nM; read-out: Fold Induction over Background at 100 nM. As for the experimental part:
Culture medium referred to as R1 media is prepared by adding 1% FBS to RPMI-1640 (component of Promega kit CS196005). Serial dilutions of test articles in R1 are prepared in a sterile 96 well-plate. Use 25 μl per well of test articles or R1 (as a background control) to designated wells in white cell culture plate. Tumour cells* are harvested and resuspended at a concentration of 400,000 cells/mL in R1 media. Twenty five (25) μL/well tumour cells are used in white cell culture plate. Jurkat cells (Promega kit CS196005, 0.5 mL) are thawed in the water bath and then added to 5 ml pre-warmed R1 medium. Twenty five (25) μL/well Jurkat cells are used in white cell culture plate. Incubate the cells and test articles for 6h at 37° C., 5% CO2. At the end of 6 h, add 75 μl/well Bio-Glo™ (Promega) and incubate for 10 min before reading luminescence in a plate reader (Clariostar, BMG). The fold change relative to cells (Jurkat cells+Cell line used in co-culture) is calculated and plotted in GraphPad Prism as log(agonist) vs response to determine EC50 (nM) and Fold Induction over background (Max)
On the technique in general: A reporter such as luciferase makes a cellular process visible.

T1 sequence (Q07011 24-255): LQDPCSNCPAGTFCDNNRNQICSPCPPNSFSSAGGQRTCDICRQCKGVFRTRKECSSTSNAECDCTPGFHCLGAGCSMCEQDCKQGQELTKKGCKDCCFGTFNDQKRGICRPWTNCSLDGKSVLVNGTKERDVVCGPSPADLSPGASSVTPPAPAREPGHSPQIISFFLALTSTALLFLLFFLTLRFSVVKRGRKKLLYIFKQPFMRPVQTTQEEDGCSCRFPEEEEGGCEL

For the compound `CCCC[C@@H]1NC(=O)[C@H](Cc2ccc(O)cc2)NC(=O)[C@@H]2CCCN2C(=O)[C@H](CC(=O)O)NC(=O)[C@H](C)NC(=O)[C@H](Cc2ccccc2)NC(=O)[C@@H]2CSCCC(=O)N3CN(CN(C3)C(=O)CCSC[C@@H](C(=O)N[C@@H](CNC(=O)CCOCCOCCOCCOCCOCCOCCOCCOCCOCCOCCOCCOCCn3cc(CCC(=O)NCCC(=O)N(C)CC(=O)N(C)CC(=O)N(C)CC(=O)N(C)CC(=O)N(C)CC(=O)N(C)CC(=O)N(C)CC(=O)N(C)CC(=O)N(C)CC(=O)N(C)CC(=O)N[C@H]4CSCCC(=O)N5CN6CN(C5)C(=O)CCSC[C@H](NC(=O)[C@@H](CC(=O)O)NC(=O)[C@H](Cc5cccc7ccccc57)NC(=O)[C@@H]5CCCN5C4=O)C(=O)N[C@@H](CCSC)C(=O)N[C@@H](CCCCNC(=N)N)C(=O)N[C@@H](CC(=O)O)C(=O)N[C@@H](Cc4c[nH]c5ccccc45)C(=O)N[C@@H](CO)C(=O)N[C@@H]([C@@H](C)O)C(=O)N4CCC[C@H]4C(=O)N4C[C@H](O)C[C@H]4C(=O)N[C@@H](Cc4c[nH]c5ccccc45)C(=O)N[C@H](C(N)=O)CSCCC6=O)nn3)C(N)=O)NC1=O)C(=O)CCSC[C@H](NC(=O)[C@H](C)NC(C)=O)C(=O)N[C@@H]([C@@H](C)CC)C(=O)N[C@@H](CCC(=O)O)C(=O)N[C@@H](CCC(=O)O)C(=O)NCC(=O)N[C@@H](CCC(N)=O)C(=O)N[C@@H](Cc1ccc(O)cc1)C(=O)N2` [BCY8854], at CD137 [1], a half-maximal response (EC50) required 1.2 nM and the “Fold Induction over Background” value turned out to be 30 fold. In series [2], the EC50 is 0.89 nM and the “max IFN-y” value came out at 15962 pg/mL.

In the case of `CCCC[C@@H]1NC(=O)[C@H](Cc2ccc(O)cc2)NC(=O)[C@@H]2CCCN2C(=O)[C@H](CC(=O)O)NC(=O)[C@@H](C)NC(=O)[C@H](Cc2ccccc2)NC(=O)[C@@H]2CSCCC(=O)N3CN(CN(C3)C(=O)CCSC[C@@H](C(=O)N[C@@H](CNC(=O)CCOCCOCCOCCOCCOCCOCCOCCOCCOCCOCCOCCOCCn3cc(CCC(=O)NCCC(=O)N(C)CC(=O)N(C)CC(=O)N(C)CC(=O)N(C)CC(=O)N(C)CC(=O)N(C)CC(=O)N(C)CC(=O)N(C)CC(=O)N(C)CC(=O)N(C)CC(=O)N[C@@H](C)C(=O)N[C@@H](CCCCNC(=N)N)C(=O)N[C@@H](CC(=O)O)C(=O)N[C@H]4CSCCC(=O)N5CN6CN(C5)C(=O)CCSC[C@H](NC(=O)[C@H](CC(C)C)NC(=O)[C@@H]5CCCN5C(=O)[C@H](CC(N)=O)NC(=O)[C@H](C(C)C)NC(=O)[C@H](CC(C)C)NC(=O)[C@@H]5C[C@@H](O)CN5C4=O)C(=O)N[C@@H](CC(C)C)C(=O)N[C@@H](Cc4c[nH]cn4)C(=O)N4CCC[C@H]4C(=O)N[C@H](CC(=O)O)C(=O)N[C@@H](Cc4c[nH]c5ccccc45)C(=O)N[C@@H](CCCCNC(=N)N)C(=O)N[C@H](C(N)=O)CSCCC6=O)nn3)C(N)=O)NC1=O)C(=O)CCSC[C@H](NC(=O)[C@H](C)NC(C)=O)C(=O)N[C@@H]([C@@H](C)CC)C(=O)N[C@@H](CCC(=O)O)C(=O)N[C@@H](CCC(=O)O)C(=O)NCC(=O)N[C@@H](CCC(N)=O)C(=O)N[C@@H](Cc1ccc(O)cc1)C(=O)N2` [BCY8942], binding at CD137 [3] was characterised by a dissociation constant (Kd) of 853 nM. For the same compound, at CD137 [4], the fold induction at 0.1 µM is less than 2.

With `CCCC[C@@H]1NC(=O)[C@H](Cc2ccc(O)cc2)NC(=O)[C@@H]2CCCN2C(=O)[C@H](CC(=O)O)NC(=O)[C@@H](C)NC(=O)[C@H](Cc2ccccc2)NC(=O)[C@@H]2CSCCC(=O)N3CN(CN(C3)C(=O)CCSC[C@@H](C(=O)N[C@@H](CNC(=O)CCOCCOCCOCCOCCOCCOCCOCCOCCOCCOCCOCCOCCn3cc(CCC(=O)NCCC(=O)N(C)CC(=O)N(C)CC(=O)N(C)CC(=O)N(C)CC(=O)N(C)CC(=O)N(C)CC(=O)N(C)CC(=O)N(C)CC(=O)N(C)CC(=O)N(C)CC(=O)N[C@H]4CSCCC(=O)N5CN6CN(C5)C(=O)CCSC[C@H](NC(=O)[C@@H](CC(=O)O)NC(=O)[C@H](Cc5cccc7ccccc57)NC(=O)[C@@H]5CCCN5C4=O)C(=O)N[C@@H](CCSC)C(=O)N[C@@H](CCCCNC(=N)N)C(=O)N[C@@H](CC(=O)O)C(=O)N[C@@H](Cc4c[nH]c5ccccc45)C(=O)N[C@@H](CO)C(=O)N[C@@H]([C@@H](C)O)C(=O)N4CCC[C@H]4C(=O)N4C[C@H](O)C[C@H]4C(=O)N[C@@H](Cc4c[nH]c5ccccc45)C(=O)N[C@H](C(N)=O)CSCCC6=O)nn3)C(N)=O)NC1=O)C(=O)CCSC[C@H](NC(=O)[C@H](C)NC(C)=O)C(=O)N[C@@H]([C@@H](C)CC)C(=O)N[C@@H](CCC(=O)O)C(=O)N[C@@H](CCC(=O)O)C(=O)NCC(=O)N[C@@H](CCC(N)=O)C(=O)N[C@@H](Cc1ccc(O)cc1)C(=O)N2` [BCY9351], the fold induction at 0.1 µM on CD137 [1] (read-out: Fold Induction over Background at 100 nM) was less than 2. At CD137 [3], the dissociation constant (Kd) was 3640 nM. The “max IFN-y” value in series [2] is “No Activity up to 1 μM”.

As to `CCCC[C@@H]1NC(=O)[C@H](Cc2ccc(O)cc2)NC(=O)[C@@H]2CCCN2C(=O)[C@H](CC(=O)O)NC(=O)[C@H](C)NC(=O)[C@H](Cc2ccccc2)NC(=O)[C@@H]2CSCCC(=O)N3CN(CN(C3)C(=O)CCSC[C@@H](C(=O)N[C@@H](C)C(N)=O)NC1=O)C(=O)CCSC[C@H](NC(C)=O)C(=O)N[C@@H](CC(C)(C)C)C(=O)N1CCC[C@H]1C(=O)N[C@@H](CCCCNC(=O)CCc1cn(CCOCCOCCOCCOCCOCCC(=O)N[C@H]3CSCCC(=O)N4CN5CN(C4)C(=O)CCSC[C@H](NC(=O)[C@@H](CC(=O)O)NC(=O)[C@H](Cc4cccc6ccccc46)NC(=O)[C@@H]4CCCN4C3=O)C(=O)N[C@@H](CCSC)C(=O)N[C@@H](CCCCNC(=N)N)C(=O)N[C@@H](CC(=O)O)C(=O)N[C@@H](Cc3c[nH]c4ccccc34)C(=O)N[C@@H](CO)C(=O)N[C@@H]([C@@H](C)O)C(=O)N3CCC[C@H]3C(=O)N3C[C@H](O)C[C@H]3C(=O)N[C@@H](Cc3c[nH]c4ccccc34)C(=O)N[C@H](C(N)=O)CSCCC5=O)nn1)C(=O)N[C@H](C)C(=O)N1CCC[C@H]1C(=O)N[C@@H](Cc1ccc(O)cc1)C(=O)N2` [BCY10571], on CD137 [1], the EC50 worked out at 3.5 nM and the “Fold Induction over Background” value is 60 fold. In addition, in series [2], the EC50 was found to be 0.44 nM and the “max IFN-y” value stood at 18349 pg/mL.
